Source: paper PMC5485972, “N-Caffeoyltryptamine, a Potent Anti-Inflammatory Phenolic Amide, Suppressed MCP-1 Expression in LPS-stimulated THP-1 Cells and Rats Fed a High-Fat Diet” (International Journal of Molecular Sciences, 2017)

What was measured:
p38 MAP kinase β = molecular target: T1, p38 MAP kinase β (Homo sapiens, UniProt Q15759); experiment: Promega CMGC-1 kinase selectivity profiling system, ADP-Glo kinase assay; type: biochemical
T1 construct: gene MAPK11

p38 MAP kinase α = molecular target: T2, p38 MAP kinase α (Homo sapiens, UniProt Q16539); experiment: as above; type: biochemical
T2 construct: gene MAPK14
T2 sequence (Q16539 2-360): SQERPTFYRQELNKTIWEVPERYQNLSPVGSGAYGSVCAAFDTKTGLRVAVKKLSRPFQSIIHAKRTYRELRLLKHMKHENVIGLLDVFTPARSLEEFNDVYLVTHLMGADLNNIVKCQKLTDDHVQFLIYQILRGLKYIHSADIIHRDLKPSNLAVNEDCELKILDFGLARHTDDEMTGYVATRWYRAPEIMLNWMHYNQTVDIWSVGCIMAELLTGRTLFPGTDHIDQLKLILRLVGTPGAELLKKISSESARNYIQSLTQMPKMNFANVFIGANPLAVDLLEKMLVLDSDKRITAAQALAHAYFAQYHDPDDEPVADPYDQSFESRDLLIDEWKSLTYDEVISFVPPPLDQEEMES

T1 sequence (Q15759 whole entry): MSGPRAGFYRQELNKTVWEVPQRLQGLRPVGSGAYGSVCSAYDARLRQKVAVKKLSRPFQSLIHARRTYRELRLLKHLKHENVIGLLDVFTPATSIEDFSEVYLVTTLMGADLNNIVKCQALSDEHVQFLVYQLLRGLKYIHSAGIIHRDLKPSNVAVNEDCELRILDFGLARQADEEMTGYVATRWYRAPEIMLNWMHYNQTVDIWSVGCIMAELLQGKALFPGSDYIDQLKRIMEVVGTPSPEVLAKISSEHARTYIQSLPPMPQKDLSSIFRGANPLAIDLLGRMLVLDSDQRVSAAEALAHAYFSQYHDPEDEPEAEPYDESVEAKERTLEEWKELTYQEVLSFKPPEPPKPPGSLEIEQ

O=C(/C=C/c1ccc(O)c(O)c1)NCCc1c[nH]c2ccccc12 [N-caffeoyltryptamine]
IC50 (p38 MAP kinase β): 18.3 µM
IC50 (p38 MAP kinase α): 16.7 µM
